Experimental data: patent US20260014134A1, “COMPOSITION FOR TOPICAL DERMATOLOGICAL DELIVERY” (Limeway Pharma Design Limited, priority 2020, published 2026)
Several values for one entry are separate records, joined by “and”; a condition that tells them apart may be missing. Equal entries are not always repeated. Where two headings read alike, the source gives them in different places.

Columns and labels:
[1] = cited from earlier work
[2] = Solubility of diffusion coefficient enhancers in propylene glycol and caprylyl methicone; type: physicochemical; conditions: 23-25° C.
Source text: As described previously, diffusion coefficient-enhancing excipients (DC enhancers) commonly comprise alcohol, acid or ester derivatives of C8-C22 hydrocarbons.
Conversely, lower carbon chain length acids and alcohols such as C8 and C10 alcohols and C8 and C10 acids may be considered to be far too soluble in hydrocarbyl methyl siloxanes including caprylyl methicone, such that their performance as diffusion coefficient-enhancing excipients would be adversely affected. Similarly, medium chain (for instance C14-C16) isopropyl esters are far too soluble in hydrocarbyl methyl siloxanes such as caprylyl methicone to allow performance as DC enhancers. For both of these classes of DC enhancer, up to 50% DC enhancer would be required to be at or near saturation in the non-volatile residual phase. In contrast, the C12-C14 acids and C14 alcohol have appropriate solubility in caprylyl methicone.
As an example of the outline design of a simple co-enhancer system comprising propylene glycol, and, for example, a C14 alcohol diffusion coefficient enhancer with caprylyl methicone, we might first consider that the concentration of propylene glycol and caprylyl methicone in the final composition (otherwise consisting of non-solvents) to be 25% of each. On this basis, the total amount of C14 alcohol to saturate both of these phases would be 2.44%/4+2.30%/4=1.185%, approximately 1.2%. […]

[3] = test system: AKs in transplant recipients; conditions: cited from earlier work
[4] = molecular target: T1, PARP-1 (Homo sapiens, UniProt P09874); assay: PARP-1 inhibition in vitro (Park J, 2010); type: biochemical
[5] = molecular target: T1, PARP-1; conditions: NAM 50 μM; cited from earlier work
[6] = test system: actinic keratoses; conditions: high oral dose, placebo-controlled; cited from earlier work
[7] = test system: IL-8; conditions: keratinocytes; cited from earlier work
[8] = test system: melanosome transfer from melanocytes to keratinocytes; conditions: cited from earlier work
[9] = test system: bullous pemphigoid; conditions: oral 2 g/day with -cycline antibiotics; cited from earlier work
[10] = test system: women with symmetrical pigmentation; conditions: 5% and 2% NAM moisturizer; cited from earlier work
[11] = test system: non-melanoma human skin cancers; conditions: cited from earlier work
[12] = oral dosage; cited from earlier work
[13] = test system: IL-1 beta, IL-6, IL-8 and TNF alpha; conditions: endotoxin-induced model; cited from earlier work
[14] = test system: human keratinocytes; conditions: cited from earlier work
[15] = cited from earlier work; remark: listed apart in the source
[16] = test system: IL-6; conditions: NAM at 500 μm, the only dose studied; cited from earlier work
[17] = test system: patients with mild-moderate psoriasis; conditions: end of 12 weeks; cited from earlier work
[18] = Saturated solubility of corticosteroids in liquid silicones; type: physicochemical; conditions: including caprylyl methicone
[19] = test system: human SC; conditions: 5% PHA in propylene glycol/myrystyl alcohol co-enhancer non-silicone cream; up to; cited from earlier work
[20] = test system: murine flank skin; conditions: 10% PHA applied to murine flank skin; cited from earlier work
[21] = test system: acute radiation dermatitis; conditions: topical cream; cited from earlier work
[22] = test system: melasma; conditions: oral, over 12 weeks; cited from earlier work

T1 sequence (P09874 whole entry, species assumed): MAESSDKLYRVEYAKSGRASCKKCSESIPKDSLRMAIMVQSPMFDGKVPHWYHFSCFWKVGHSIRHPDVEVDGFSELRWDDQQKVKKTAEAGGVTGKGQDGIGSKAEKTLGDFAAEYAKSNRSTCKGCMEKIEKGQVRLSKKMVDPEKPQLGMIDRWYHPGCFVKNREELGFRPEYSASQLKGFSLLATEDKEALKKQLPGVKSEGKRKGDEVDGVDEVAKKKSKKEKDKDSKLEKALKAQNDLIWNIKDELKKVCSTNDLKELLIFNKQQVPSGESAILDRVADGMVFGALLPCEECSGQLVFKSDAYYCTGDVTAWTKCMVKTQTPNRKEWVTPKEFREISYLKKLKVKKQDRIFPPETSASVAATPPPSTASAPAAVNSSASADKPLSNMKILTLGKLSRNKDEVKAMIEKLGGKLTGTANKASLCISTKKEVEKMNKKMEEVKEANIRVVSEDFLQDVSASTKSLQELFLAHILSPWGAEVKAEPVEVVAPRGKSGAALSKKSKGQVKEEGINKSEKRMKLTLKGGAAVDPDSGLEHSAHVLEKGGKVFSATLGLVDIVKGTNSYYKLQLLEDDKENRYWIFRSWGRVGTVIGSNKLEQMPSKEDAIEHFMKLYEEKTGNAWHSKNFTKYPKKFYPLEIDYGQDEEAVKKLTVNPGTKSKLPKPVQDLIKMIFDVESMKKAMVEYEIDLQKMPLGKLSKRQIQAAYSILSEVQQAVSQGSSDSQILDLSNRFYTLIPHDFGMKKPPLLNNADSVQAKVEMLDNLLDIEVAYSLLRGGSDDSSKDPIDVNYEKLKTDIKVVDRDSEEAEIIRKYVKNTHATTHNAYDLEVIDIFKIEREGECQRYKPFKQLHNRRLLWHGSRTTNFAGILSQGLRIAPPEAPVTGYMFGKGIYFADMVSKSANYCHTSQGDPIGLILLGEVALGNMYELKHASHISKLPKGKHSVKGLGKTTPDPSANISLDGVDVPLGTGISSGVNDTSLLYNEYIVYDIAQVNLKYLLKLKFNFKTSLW

For CCCCCCCCCCCCCCO [C14 alcohol, myristyl alcohol], the “logP O/W” value [1] is given as over 4.00, the “solubility of C14 alcohol in caprylyl methicone (amount to saturate)” value ([2]; in caprylyl methicone) is given as 2.30% and the “solubility of C14 alcohol in propylene glycol (amount to saturate)” value ([2]; in propylene glycol) is given as 2.44%.

In the case of NC(=O)c1cccnc1 [NAM, nicotinamide], the “patients with AKs significantly decreased in size” value ([3]; after six months, 18/19 patients) is listed as 88%, the “patients with complete clinical regression” value ([3]; seven patients) is listed as 42% and the “concentration predicted to be required for significant PARP-1 inhibition” value [4] is listed as 50 to 100 µM. For the same molecule, the PARP-1 inhibition [5] was 66%, the “effect on actinic keratoses” value [6] was “significantly reduced actinic keratoses” and the “concentration required to significantly inhibit P. acnes-induced IL-8 mRNA production” value [7] was 5.0 ug/ml and ~40 μM. For the same molecule, the “inhibition of melanosome transfer” value ([8]; 1.0 mmolL^−1 (1 mM) NAM, coculture model) was 35-68%, the “inhibition of melanosome transfer” value ([8]; NAM 10 μM, after 3 days of treatment) was 14% and the “time to total remission of bullous pemphigoid” value [9] was 6-8 weeks. For the same molecule, the “reduction in hyperpigmented lesions” value [10] was “dose-dependent reduction in hyperpigmented lesions”, the “peritumoral and tumour infiltrating CD4+ and CD8+ lymphocytes versus placebo” value ([11]; melanomas arising on treatment) was “statistically significantly increased” and the “rates of new non-melanoma skin cancers and actinic keratoses” value ([11]; oral) was “safe and effective in reducing the rates”. For the same molecule, the “half-life of decrease of peak concentrations in plasma and skin” value [12] was “approximately 90 minutes”, the “concentration required for significant effects on proinflammatory cytokines” value [13] was 2,000 μM and the “ceramide biosynthesis, % of maximum response” value ([14]; NAM 1-10 μM) was 75%-100%. The “concentration at maximum of ceramide synthesis dose response” value ([14]; in vitro) was about 10 µM, the “increase in biosynthesis of ceramides and other stratum corneum lipids” value ([14]; up to) was “up to 5 fold” and the pKa [15] was ~3.5 and 3.5. For the same molecule, the “reduction in IL-6 compared to untreated control” value [16] was 88%.

In the case of C=C1/C(=C\C=C2/CCC[C@]3(C)[C@@H]([C@H](C)/C=C/[C@@H](O)C4CC4)CC[C@@H]23)C[C@@H](O)C[C@@H]1O [calcipotriol], the “reduction of PASI score” value [17] is given as 77.8±9.7%.

In the case of CCC(=O)O[C@]1(C(=O)SCF)[C@H](C)C[C@H]2[C@@H]3C[C@H](F)C4=CC(=O)C=C[C@]4(C)[C@@]3(F)[C@@H](O)C[C@@]21C [fluticasone propionate], the “saturated solubility in a range of liquid silicones” value [18] is reported as “appropriately low”.

In the case of O=C1O[C@H](CO)[C@@H](O)[C@H](O)[C@H]1O [gluconolactone], the “logP O/W” value [1] is listed as −4.8.

In the case of O=C(O)[C@H](O)[C@@H](O)[C@H](O[C@@H]1O[C@H](CO)[C@H](O)[C@H](O)[C@H]1O)[C@H](O)CO [lactobionic acid], the “decrease in human SC pH in vivo” value [19] is listed as “up to 1.5 pH units”, the “logP O/W” value [1] is listed as −4.8 and the “decrease in pH at all SC depths” value [20] is listed as 0.5-1.0 pH units.

For C[C@@H]1C[C@H]2[C@@H]3CCC4=CC(=O)C=C[C@]4(C)[C@@]3(Cl)[C@@H](O)C[C@]2(C)[C@@]1(OC(=O)c1ccco1)C(=O)CCl [mometasone furoate], the “saturated solubility in a range of liquid silicones” value [18] is given as “appropriately low” and the “reduction of acute radiation dermatitis versus emollient cream” value [21] is given as “significantly more effective than emollient cream alone”.

In the case of NC[C@H]1CC[C@H](C(=O)O)CC1 [tranexamic acid], the “reduction in melasma (mMASI, MASI) scores” value [22] is given as “approximately 50%”.
